Among the data in ChEMBL document CHEMBL3886728, “Dihydrobenzoxazine and tetrahydroquinoxaline sodium channel inhibitors” (2016) are IC50 values, retold here.

A word on the IC50: it is the concentration needed to halve the response being measured. Higher therefore signals weaker potency in that assay.

Experiment [1] addresses T1, Sodium channel protein type 9 subunit alpha (Homo sapiens, UniProt Q15858). Nature of the experiment: In Vitro Assay: HEK 293 cells stably transfected with either Nav 1.7 or with Nav 1.5 were recorded in population patch-clamp mode with the IonWorks® Quattro automated electrophysiology system in accordance with the manufacturer's specifications (Molecular Devices, LLC, Sunnyvale, Calif.). Sodium channel currents were measured in response to a train of depolarizations that induced successively greater inactivation. Cells were held at −110 mV for three seconds (Nav 1.7) or half a second (Nav 1.5) from a holding voltage of −15 mV, then put through a series of 26 pulses of 150 msec duration to −20 mV at a frequency of 5 Hz. Cells were then left unclamped for a period of 3 to 8 minutes while a single concentration of test compound was added. Cells were then reclamped and put through the same voltage protocol. Current at the end of the 26th pulse to −20 mV was subtracted from the peak current evoked by the 26th pulse to −20 mV to correct for leak current. The format is cell-based. A general note: In patch-clamp work, channel activity is measured electrically.

In experiment [2] the target is T1, Sodium channel protein type 9 subunit alpha. In words: In Vitro PX Assay: HEK 293 cells stably transfected with human Nav1.7 were recorded in whole cell voltage clamp mode with the PatchXpress automated electrophysiology system (Molecular Devices, LLC, Sunnyvale, Calif.). Compound effects were measured on a partially inactivated state of the sodium channel. Cells were clamped to a holding potential yielding 20 to 50% inactivation. To elicit sodium current, channels were activated by pulsing to −10 mV for 20 msec. This voltage protocol was repeated at a rate of 0.1 Hz throughout the experiment. A single concentration of test compound was applied to cells for a duration of 3 minutes. In kind it is cell-based.

T1 sequence (Q15858 whole entry): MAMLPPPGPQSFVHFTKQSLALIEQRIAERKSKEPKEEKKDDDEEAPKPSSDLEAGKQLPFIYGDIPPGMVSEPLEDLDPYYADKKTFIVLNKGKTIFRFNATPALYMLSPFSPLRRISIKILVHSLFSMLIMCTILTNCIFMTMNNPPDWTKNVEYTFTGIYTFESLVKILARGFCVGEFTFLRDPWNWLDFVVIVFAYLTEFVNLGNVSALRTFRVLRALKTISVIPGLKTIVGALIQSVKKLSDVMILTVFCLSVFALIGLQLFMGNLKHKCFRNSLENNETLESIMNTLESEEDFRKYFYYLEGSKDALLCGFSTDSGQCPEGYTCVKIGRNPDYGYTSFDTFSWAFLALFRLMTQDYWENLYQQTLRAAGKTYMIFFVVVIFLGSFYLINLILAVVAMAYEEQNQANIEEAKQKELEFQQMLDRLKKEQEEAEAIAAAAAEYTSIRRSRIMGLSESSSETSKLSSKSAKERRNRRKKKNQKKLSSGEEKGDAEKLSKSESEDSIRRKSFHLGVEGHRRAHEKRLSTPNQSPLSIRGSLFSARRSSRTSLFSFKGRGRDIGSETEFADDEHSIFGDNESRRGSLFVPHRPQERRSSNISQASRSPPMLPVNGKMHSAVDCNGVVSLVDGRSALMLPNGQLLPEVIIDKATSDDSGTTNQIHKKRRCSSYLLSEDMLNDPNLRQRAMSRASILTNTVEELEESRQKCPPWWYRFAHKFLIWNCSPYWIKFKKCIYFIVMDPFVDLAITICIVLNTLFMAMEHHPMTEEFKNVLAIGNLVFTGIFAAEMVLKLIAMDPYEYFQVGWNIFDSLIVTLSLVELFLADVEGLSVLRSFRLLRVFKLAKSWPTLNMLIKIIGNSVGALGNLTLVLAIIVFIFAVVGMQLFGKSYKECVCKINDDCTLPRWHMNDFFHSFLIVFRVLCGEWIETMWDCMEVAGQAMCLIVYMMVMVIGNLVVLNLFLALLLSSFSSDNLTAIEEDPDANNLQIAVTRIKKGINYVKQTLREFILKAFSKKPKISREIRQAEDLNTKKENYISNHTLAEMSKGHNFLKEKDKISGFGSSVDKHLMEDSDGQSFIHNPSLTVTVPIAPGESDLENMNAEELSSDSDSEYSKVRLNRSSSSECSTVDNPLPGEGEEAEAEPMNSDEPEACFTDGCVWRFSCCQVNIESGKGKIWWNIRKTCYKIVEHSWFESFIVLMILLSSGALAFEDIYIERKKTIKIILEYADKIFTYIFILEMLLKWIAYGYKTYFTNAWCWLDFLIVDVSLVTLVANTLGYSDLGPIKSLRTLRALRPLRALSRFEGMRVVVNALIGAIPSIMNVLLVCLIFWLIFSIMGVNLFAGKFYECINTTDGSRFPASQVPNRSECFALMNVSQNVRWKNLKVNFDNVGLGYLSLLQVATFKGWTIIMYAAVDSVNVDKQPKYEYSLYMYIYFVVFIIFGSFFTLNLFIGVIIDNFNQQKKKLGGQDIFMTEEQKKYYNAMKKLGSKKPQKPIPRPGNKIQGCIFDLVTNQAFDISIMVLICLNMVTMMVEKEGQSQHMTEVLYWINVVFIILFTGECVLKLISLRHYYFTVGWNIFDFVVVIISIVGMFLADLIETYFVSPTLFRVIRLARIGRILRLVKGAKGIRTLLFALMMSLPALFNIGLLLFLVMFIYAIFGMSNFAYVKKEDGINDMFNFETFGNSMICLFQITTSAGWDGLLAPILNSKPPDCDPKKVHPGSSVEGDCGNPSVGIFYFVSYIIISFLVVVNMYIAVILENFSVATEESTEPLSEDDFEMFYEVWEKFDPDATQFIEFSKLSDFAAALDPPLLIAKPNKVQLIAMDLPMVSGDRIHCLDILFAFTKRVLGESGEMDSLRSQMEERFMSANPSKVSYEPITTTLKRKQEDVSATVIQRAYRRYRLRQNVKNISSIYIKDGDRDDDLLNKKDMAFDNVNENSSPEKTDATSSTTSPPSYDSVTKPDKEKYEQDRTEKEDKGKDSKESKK

Regarding `O=S(=O)(Nc1nccs1)c1ccc2c(c1)OCCN2c1cccc(Cl)c1Cl`, the half-inhibitory concentration (IC50) in experiment [1] came out at 274 nM; in experiment [2], 961 nM.

With `O=S(=O)(Nc1nccs1)c1ccc2c(c1)OCCN2c1ccc(-n2ccnc2)cc1`, the IC50 was 2690 nM in experiment [1] and 13700 nM in experiment [2].

For `Cc1c(Cl)cccc1N1CCOc2cc(S(=O)(=O)Nc3nccs3)ccc21`, the IC50 in experiment [1] stood at 601 nM; in experiment [2], 416 nM.

Regarding `O=S(=O)(Nc1nccs1)c1ccc2c(c1)OCCN2c1cc(F)ccc1F`, the IC50 turned out to be 114 nM in experiment [1] and 1110 nM in experiment [2].

As to `O=S(=O)(Nc1nccs1)c1ccc2c(c1)OCCN2c1ncc(Cl)cc1Cl`, the IC50 in experiment [1] was 397 nM; in experiment [2] it was 4500 nM.

For the molecule `N#Cc1ccc(F)c(N2CCOc3cc(S(=O)(=O)Nc4nccs4)ccc32)c1`, the figures for the IC50 in experiment [1] and in experiment [2] were 727 nM and 3190 nM, respectively.

As to `CCOc1cccc(N2CCOc3cc(S(=O)(=O)Nc4nccs4)ccc32)c1`, the IC50 in experiment [1] is 742 nM; in experiment [2] it was 2850 nM.

Consider `Cc1cc(N2CCOc3cc(S(=O)(=O)Nc4nccs4)ccc32)cc(C)c1N(C)C`, for which the concentration for half-maximal inhibition (IC50) in experiment [1] amounted to 808 nM; in experiment [2], 2370 nM.

In the case of `COc1cccc(N2CCOc3cc(S(=O)(=O)Nc4nccs4)ccc32)c1`, the half-inhibitory concentration (IC50) in experiment [1] was found to be 141 nM; in experiment [2], 2070 nM.

Consider `O=S(=O)(Nc1nccs1)c1ccc2c(c1)OCCN2c1ccccc1C(F)(F)F`, for which the IC50 in experiment [1] came out at 1660 nM; in experiment [2], 8020 nM.

As to `Cc1ccc(N2CCOc3cc(S(=O)(=O)Nc4nccs4)ccc32)cc1Cl`, the IC50 in experiment [1] stood at 733 nM; in experiment [2], 1550 nM.

With `COc1ccc(N2CCOc3cc(S(=O)(=O)Nc4nccs4)ccc32)c(C#N)c1`, the results for the half-inhibitory concentration (IC50) in experiment [1] and in experiment [2] were 2690 nM and 13800 nM, respectively.

`O=S(=O)(Nc1nccs1)c1ccc2c(c1)OCCN2c1cccc2scnc12`: the IC50 in experiment [1] is 3760 nM; in experiment [2], 5760 nM.

Consider `O=S(=O)(Nc1nccs1)c1ccc2c(c1)OCCN2c1ccc(F)cc1F`, for which the IC50 in experiment [1] turned out to be 191 nM; in experiment [2] it was 1820 nM.

Regarding `O=C1CCCc2ccc(N3CCOc4cc(S(=O)(=O)Nc5nccs5)ccc43)cc21`, the IC50 was found to be 1100 nM in experiment [1] and 7100 nM in experiment [2].

With `COc1cc(C#N)ccc1N1CCOc2cc(S(=O)(=O)Nc3ccncn3)ccc21`, in experiment [2], it took 910 nM to reach half-maximal inhibition (IC50).

Regarding `Cc1ccc(N2CCOc3cc(S(=O)(=O)Nc4nccs4)ccc32)cc1F`, it took 7370 nM to reach half-maximal inhibition in experiment [1] (IC50).

As for `CC(C)(C)OC(=O)N1CC=C(c2cc(C(F)(F)F)ccc2N2CCOc3cc(S(=O)(=O)Nc4ncns4)ccc32)CC1`, the IC50 in experiment [1] was determined as 81.8 nM; in experiment [2], 306 nM.

For the molecule `CN1CC=C(c2cc(C(F)(F)F)ccc2N2CCOc3cc(S(=O)(=O)Nc4ccncn4)ccc32)CC1`, the IC50 in experiment [1] was 4.5 nM; in experiment [2] it was 364 nM.
